According to PMC10778704, “Comparative Analysis of Cyclization Techniques in Stapled Peptides: Structural Insights into Protein–Protein Interactions in a SARS-CoV-2 Spike RBD/hACE2 Model System” (International Journal of Molecular Sciences, 2023):
Bridge positions count the residues as written; N and C are the ends. Square brackets hold non-standard residues; d marks the D form. Peptide text beside a SMILES is read from it. S5 = C=CCCC[C@](C)(N)C(=O)O

Test system: SARS-CoV-2 pseudovirus
Conditions: 48 h, 735 μM

Compound	Inhibition of the pseudovirus [%]
CC(=O)N[C@@H](Cc1c[nH]cn1)C(=O)N[C@@H](CCC(=O)O)C(=O)N[C@H]1CCCCNC(=O)C[C@@H](C(=O)N[C@@H](Cc2ccc(O)cc2)C(=O)N[C@@H](CCC(N)=O)C(N)=O)NC(=O)[C@H](CC(C)C)NC(=O)[C@H](CC(=O)O)NC(=O)[C@H](CCC(=O)O)NC1=O [peptide 4, Ac-NH-His-Glu-[Lys-Glu-Asp-Leu-Asp]-Tyr-Gln-CO-NH2] (Ac-HEKEDLDYQ-NH2; lactam 3-7)	48
CC(=O)N[C@@H](Cc1c[nH]cn1)C(=O)N[C@@H](CCC(=O)O)C(=O)N[C@@]1(C)CCC/C=C/CCC[C@@](C)(C(=O)N[C@@H](Cc2ccc(O)cc2)C(=O)N[C@@H](CCC(N)=O)C(N)=O)NC(=O)[C@H](CC(C)C)NC(=O)[C@H](CC(=O)O)NC(=O)[C@H](CCC(=O)O)NC1=O [peptide 11, Ac-NH-His-Glu-[S5-Glu-Asp-Leu-S5]-Tyr-Gln-CO-NH2] (Ac-HE[S5]EDL[S5]YQ-NH2; staple (E) 3-7)	68
